PubChem BioAssay AID1919008 (Molecular Pharmacology Branch, DTP, NCI, 2023)

Test system: DMS-114 complex spheroids with HUVEC/MSC, growth % test/control
Test: Anticancer human tumor DMS-114 cell line growth inhibition [AhR];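 further: spheroids exposed to agents for 7 days before readout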;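 on viability, T/C: 100% = DMSO vehicle control wells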
Details: for IC50: curve of first compound; for viability, T/C: stronger effect = lower value
How it was run: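 Complex tumor spheroids co-cultured with HUVEC and human MSC stroma; AhR antagonists tested in combination with standard-of-care and investigational agents. Top concentration at or near clinical Cmax (else 10 microM), half-log dilutions; growth expressed as percent test/control.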

[1] = second compound 0.1 µM, first compound 0.000949 µM
[2] = second compound 0.1 µM, first compound 0.003 µM
[3] = second compound 0.1 µM, first compound 0.00949 µM
[4] = second compound 0.1 µM, first compound 0.03 µM
[5] = second compound 0.1 µM, first compound 0.0949 µM
[6] = second compound 0.1 µM, first compound 0.3 µM
[7] = second compound 0.316 µM, first compound 0.000949 µM
[8] = second compound 0.316 µM, first compound 0.003 µM
[9] = second compound 0.316 µM, first compound 0.00949 µM
[10] = second compound 0.316 µM, first compound 0.03 µM
[11] = second compound 0.316 µM, first compound 0.0949 µM
[12] = second compound 0.316 µM, first compound 0.3 µM
[13] = second compound 1 µM, first compound 0.000949 µM
[14] = second compound 1 µM, first compound 0.003 µM
[15] = second compound 1 µM, first compound 0.00949 µM
[16] = second compound 1 µM, first compound 0.03 µM
[17] = second compound 1 µM, first compound 0.0949 µM
[18] = second compound 1 µM, first compound 0.3 µM
[19] = second compound 3.16 µM, first compound 0.000949 µM
[20] = second compound 3.16 µM, first compound 0.003 µM
[21] = second compound 3.16 µM, first compound 0.00949 µM
[22] = second compound 3.16 µM, first compound 0.03 µM
[23] = second compound 3.16 µM, first compound 0.0949 µM
[24] = second compound 3.16 µM, first compound 0.3 µM
[25] = second compound 10 µM, first compound 0.000949 µM
[26] = second compound 10 µM, first compound 0.003 µM
[27] = second compound 10 µM, first compound 0.00949 µM
[28] = second compound 10 µM, first compound 0.03 µM
[29] = second compound 10 µM, first compound 0.0949 µM
[30] = second compound 10 µM, first compound 0.3 µM

For `CC(C)CC(NC(=O)C(Cc1ccccc1)NC(=O)c1cnccn1)B(O)O` (stereo not given) + Cc1cncc(-c2nc(NCCc3c[nH]c4ccccc34)c3ncn(C(C)C)c3n2)c1, the IC50 (second compound 0.1 µM) was 5.45 nM, the IC50 (second compound 0.316 µM) was 5.21 nM and the IC50 (second compound 1 µM) was 5.38 nM. It also gave an IC50 (second compound 3.16 µM) of 4.67 nM, an IC50 (second compound 10 µM) of under 0.949 nM and a viability, T/C [1] of 113%. For the same compound, the viability, T/C [2] was 102%, the viability, T/C [3] was 2.1% and the viability, T/C [4] was 0.04%. It also gave a viability, T/C [5] of 0.04%, a viability, T/C [6] of 0.16% and a viability, T/C [7] of 102%. The viability, T/C [8] was 94.3%, the viability, T/C [9] was 1.97% and the viability, T/C [10] was 0.04%. The viability, T/C [11] was 0.03%, the viability, T/C [12] was 0.15% and the viability, T/C [13] was 101%. The viability, T/C [14] was 99.7%, the viability, T/C [15] was 1.76% and the viability, T/C [16] was 0.45%. The viability, T/C [17] was 0.02%, the viability, T/C [18] was 0.26% and the viability, T/C [19] was 93.8%. For the same compound, the viability, T/C [20] was 80.7%, the viability, T/C [21] was 0.87% and the viability, T/C [22] was 0.04%. For the same compound, the viability, T/C [23] was 0.04%, the viability, T/C [24] was 0.18% and the viability, T/C [25] was 37.7%. The viability, T/C [26] was 28.9%, the viability, T/C [27] was 0.42% and the viability, T/C [28] was 0.21%. The viability, T/C [29] was 0.21% and the viability, T/C [30] was 0.3%.

In the case of `CCc1c2c(nc3ccc(O)cc13)-c1cc3c(c(=O)n1C2)COC(=O)[C@]3(O)CC` + Cc1cncc(-c2nc(NCCc3c[nH]c4ccccc34)c3ncn(C(C)C)c3n2)c1, the IC50 (second compound 0.1 µM) is reported as 2.07 nM, the IC50 (second compound 0.316 µM) is reported as 2.21 nM and the IC50 (second compound 1 µM) is reported as 2.02 nM. For the same compound, the IC50 (second compound 3.16 µM) was 1.58 nM, the IC50 (second compound 10 µM) was under 0.949 nM and the viability, T/C [1] was 67.4%. The viability, T/C [2] was 41.6%, the viability, T/C [3] was 21.9% and the viability, T/C [4] was 13.8%. For the same compound, the viability, T/C [5] was 12.6%, the viability, T/C [6] was 12.5% and the viability, T/C [7] was 69%. For the same compound, the viability, T/C [8] was 43.1%, the viability, T/C [9] was 19.9% and the viability, T/C [10] was 14.5%. It also gave a viability, T/C [11] of 15.2%, a viability, T/C [12] of 12.2% and a viability, T/C [13] of 62.5%. It also gave a viability, T/C [14] of 43.5%, a viability, T/C [15] of 20.7% and a viability, T/C [16] of 15.5%. For the same compound, the viability, T/C [17] was 9.97%, the viability, T/C [18] was 14.7% and the viability, T/C [19] was 62.9%. For the same compound, the viability, T/C [20] was 33.7%, the viability, T/C [21] was 15% and the viability, T/C [22] was 13.1%. The viability, T/C [23] was 13%, the viability, T/C [24] was 12.4% and the viability, T/C [25] was 22.1%. The viability, T/C [26] was 17.4%, the viability, T/C [27] was 9.92% and the viability, T/C [28] was 8.3%. The viability, T/C [29] was 9% and the viability, T/C [30] was 6.26%.

`COc1cc(Nc2ncc3c(n2)-c2ccc(Cl)cc2C(c2c(F)cccc2OC)=NC3)ccc1C(=O)O` + Cc1cncc(-c2nc(NCCc3c[nH]c4ccccc34)c3ncn(C(C)C)c3n2)c1 showed an IC50 (second compound 0.1 µM) of under 31.6 nM, an IC50 (second compound 0.316 µM) of under 31.6 nM and an IC50 (second compound 1 µM) of under 31.6 nM. The IC50 (second compound 3.16 µM) was under 31.6 nM, the IC50 (second compound 10 µM) was under 31.6 nM and the viability, T/C (second compound 0.1 µM, first compound 0.0316 µM) was 34.3%. For the same compound, the viability, T/C (second compound 0.1 µM, first compound 0.1 µM) was 23.1%, the viability, T/C (second compound 0.1 µM, first compound 0.316 µM) was 44.3% and the viability, T/C (second compound 0.1 µM, first compound 1 µM) was 53.2%. For the same compound, the viability, T/C (second compound 0.1 µM, first compound 3.16 µM) was 65.4%, the viability, T/C (second compound 0.1 µM, first compound 10 µM) was 72.5% and the viability, T/C (second compound 0.316 µM, first compound 0.0316 µM) was 28.4%. For the same compound, the viability, T/C (second compound 0.316 µM, first compound 0.1 µM) was 22.3%, the viability, T/C (second compound 0.316 µM, first compound 0.316 µM) was 40.9% and the viability, T/C (second compound 0.316 µM, first compound 1 µM) was 62.1%. For the same compound, the viability, T/C (second compound 0.316 µM, first compound 3.16 µM) was 61.6%, the viability, T/C (second compound 0.316 µM, first compound 10 µM) was 64.6% and the viability, T/C (second compound 1 µM, first compound 0.0316 µM) was 30.1%. For the same compound, the viability, T/C (second compound 1 µM, first compound 0.1 µM) was 21.3%, the viability, T/C (second compound 1 µM, first compound 0.316 µM) was 41.7% and the viability, T/C (second compound 1 µM, first compound 1 µM) was 66%. The viability, T/C (second compound 1 µM, first compound 3.16 µM) was 61.7%, the viability, T/C (second compound 1 µM, first compound 10 µM) was 70.5% and the viability, T/C (second compound 3.16 µM, first compound 0.0316 µM) was 24.5%. For the same compound, the viability, T/C (second compound 3.16 µM, first compound 0.1 µM) was 14.9%, the viability, T/C (second compound 3.16 µM, first compound 0.316 µM) was 36.3% and the viability, T/C (second compound 3.16 µM, first compound 1 µM) was 57.2%. The viability, T/C (second compound 3.16 µM, first compound 3.16 µM) was 69.8%, the viability, T/C (second compound 3.16 µM, first compound 10 µM) was 63% and the viability, T/C (second compound 10 µM, first compound 0.0316 µM) was 16.4%. It also gave a viability, T/C (second compound 10 µM, first compound 0.1 µM) of 8.12%, a viability, T/C (second compound 10 µM, first compound 0.316 µM) of 19% and a viability, T/C (second compound 10 µM, first compound 1 µM) of 34.3%. The viability, T/C (second compound 10 µM, first compound 3.16 µM) was 32.4% and the viability, T/C (second compound 10 µM, first compound 10 µM) was 38.4%.
